In US7745390B2, “Antimicrobial peptides” (priority 2005, dated 2010):
Square brackets hold non-standard residues; d marks the D form. Ends that are not written are not given here. Peptide text beside a SMILES is read from it.

Experiments:
Salmonella = assay type: cell-based, S. typhimurium; details: pH 7.2
Method: (§1) The experiments described above characterizing the activity of granulysin peptides G1-G18 relied on counting bacterial colonies on plates. This assay is quite labor intensive and would not allow evaluation of many different compounds on a number of different microbes. Therefore, we optimized an assay in which the entire procedure could be completed in a single microtiter well. Briefly, peptides are diluted in 10 mM phosphate buffer, pH 7.2 supplemented with 0.03% LB (J. Sambrook, D. W. Russell, Molecular Cloning: A Laboratory Manual (Cold Spring Harbor Laboratory Press, New York, ed. 3, 2001) pg. A2.2, Retrieved from http://openwetware.org/wiki/LB) and 25 μl is added to microtiter wells. Bacteria (25 μl) are added (˜5×10^6 colony forming units/ml) in the same buffer. After a 3-hour incubation at 37° C., 150 μl of LB is added and the plates are incubated overnight. The OD at 600 nm is read on an ELISA plate reader. The minimum inhibitory concentration (MIC) is the lowest concentration allowing no bacterial growth. The IC50 is the concentration of peptide that results in 50% growth compared to the medium.
(§2) We now describe additional peptides and their activity. The peptides have been designed, synthesized, and have been tested for lysis of E. coli and S. typhimurium (gram negative bacteria), B. cereus (gram positive bacterium). Results are shown in Table 2 along with the amino acid sequence of the peptide. Changes from the naturally occurring sequence are underlined. In general, the desired result is lysis of bacteria at low concentration (<1 μM).
(§3) In Table 2, Columns 2-7 are the MIC and IC50 (concentration required for 50% inhibition of growth) for each organism (E. coli, Salmonella, and B. cereus). The MIC (minimum inhibitory concentration) was determined as described above, in a multiwell plate assay. […] L-isomer amino acids are designated by capital letters while D-isomer amino acids are designated by lower case letters.

E. coli DH5a = assay type: cell-based; details: DH5a, pH 7.2
Method: as §1, §2, §3

B. cereus = assay type: cell-based; details: pH 7.2
Method: as §1, §2, §3

Compound: KKVSKKFMKKGSKKVSKKFMKKGSKKVSKKFMKK [Peptide G11.25]
- IC50 (Salmonella): 100 nM
- Salmonella MIC (Salmonella): 0.15 µM
- E. coli DH5a MIC (E. coli DH5a): 0.15 µM
- IC50 (E. coli DH5a): 100 nM
- B. cereus MIC (B. cereus): 0.15 µM
- IC50 (B. cereus): 100 nM

Compound: CC[C@H](C)[C@H](NC(=O)[C@H](NC(=O)[C@H](CCCNC(=N)N)NC(=O)[C@H](CO)NC(=O)[C@H](CCC(N)=O)NC(=O)[C@@H](CCCNC(=N)N)NC(=O)[C@@H](CCCNC(=N)N)NC(=O)[C@H](CCSC)NC(=O)[C@H](Cc1ccccc1)NC(=O)[C@@H](CCCNC(=N)N)NC(=O)[C@H](CCCNC(=N)N)NC(=O)[C@@H](C)NC(=O)[C@@H](NC(=O)[C@H](CC(=O)O)NC(=O)[C@@H](N)CCCNC(=N)N)C(C)C)C(C)C)C(=O)N[C@@H](CO)C(=O)N[C@@H](CCCNC(=N)N)C(=O)N[C@H](CC(C)C)C(=O)N[C@H](C(=O)O)C(C)C [Peptide G12.17, RDVaRrFMrrQSRvISRlV] (H-RDV[dA]R[dR]FM[dR][dR]QSR[dV]ISR[dL]V-OH; N-terminus and C-terminus assumed)
- IC50 (Salmonella): 1600 nM
- Salmonella MIC (Salmonella): 2.8 µM
- E. coli DH5a MIC (E. coli DH5a): 3.3 µM
- IC50 (E. coli DH5a): 890 nM
- B. cereus MIC (B. cereus): 2.8 µM
- IC50 (B. cereus): 1750 nM

Compound: QRSVSNAATRVSRTGRSRWRDVSRRFMRR [Peptide G8.3]
- IC50 (Salmonella): 450 nM
- Salmonella MIC (Salmonella): 0.67 µM
- E. coli DH5a MIC (E. coli DH5a): 0.7 µM
- IC50 (E. coli DH5a): 550 nM
- B. cereus MIC (B. cereus): 1.25 µM
- IC50 (B. cereus): 700 nM

Compound: SDVAKKFMKKQSKVIKKLV [Peptide G12.23, SDVAKKFMKKQSKVIKKLV]
- IC50 (Salmonella): > 10000 nM
- Salmonella MIC (Salmonella): >10 µM
- E. coli DH5a MIC (E. coli DH5a): 3 µM
- IC50 (E. coli DH5a): 1000 nM
- B. cereus MIC (B. cereus): >10 µM
- IC50 (B. cereus): 7700 nM

Compound: CSCC[C@H](NC(=O)[C@H](Cc1ccccc1)NC(=O)[C@@H](CCCNC(=N)N)NC(=O)[C@@H](CCCNC(=N)N)NC(=O)[C@H](CO)NC(=O)[C@H](NC(=O)[C@@H](CCCNC(=N)N)NC(=O)[C@@H](N)CCCNC(=N)N)C(C)C)C(=O)N[C@H](CCCNC(=N)N)C(=O)N[C@@H](CCCNC(=N)N)C(=O)N[C@@H](CC(=O)O)C(N)=O [Peptide G11.45, RrvSrrFMrRD] (H-R[dR][dV]S[dR][dR]FM[dR]RD-NH2; N-terminus assumed)
- IC50 (Salmonella): > 10000 nM
- Salmonella MIC (Salmonella): >10 µM
- E. coli DH5a MIC (E. coli DH5a): >10 µM
- IC50 (E. coli DH5a): > 10000 nM
- B. cereus MIC (B. cereus): >10 µM
- IC50 (B. cereus): > 10000 nM

Compound: KKVSKKFMKKYQSKVIQGLV [Peptide G12.9]
- IC50 (Salmonella): 850 nM
- Salmonella MIC (Salmonella): 1.4 µM
- E. coli DH5a MIC (E. coli DH5a): 1.35 µM
- IC50 (E. coli DH5a): 490 nM
- B. cereus MIC (B. cereus): 5.6 µM
- IC50 (B. cereus): 3510 nM

Compound: RRVSRRFMRR [Peptide G11.44, RRVSRRFMRR]
- IC50 (Salmonella): 3150 nM
- Salmonella MIC (Salmonella): 5.75 µM
- E. coli DH5a MIC (E. coli DH5a): 0.38 µM
- IC50 (E. coli DH5a): 210 nM
- B. cereus MIC (B. cereus): >10 µM
- IC50 (B. cereus): 7700 nM

Compound: QRAVANAATRVARTGRARWRDVARRFMRR [Peptide G8.6]
- IC50 (Salmonella): 430 nM
- Salmonella MIC (Salmonella): 0.7 µM
- E. coli DH5a MIC (E. coli DH5a): 0.7 µM
- IC50 (E. coli DH5a): 450 nM
- B. cereus MIC (B. cereus): 1.5 µM
- IC50 (B. cereus): 890 nM

Compound: RRDSRRFMRR [Peptide G11.11, RRDSRRFMRR]
- IC50 (Salmonella): > 10000 nM
- Salmonella MIC (Salmonella): >10 µM
- E. coli DH5a MIC (E. coli DH5a): >10 µM
- IC50 (E. coli DH5a): 7450 nM
- B. cereus MIC (B. cereus): >10 µM
- IC50 (B. cereus): > 10000 nM

Compound: RRVSRRFMRRYRSRRIRRLV [Peptide G12.8]
- IC50 (Salmonella): 410 nM
- Salmonella MIC (Salmonella): 0.65 µM
- E. coli DH5a MIC (E. coli DH5a): 0.7 µM
- IC50 (E. coli DH5a): 450 nM
- B. cereus MIC (B. cereus): 0.71 µM
- IC50 (B. cereus): 450 nM

Compound: QRAVARAATRVARTGRARWRDVARNFMRR [Peptide G8.5]
- IC50 (Salmonella): 420 nM
- Salmonella MIC (Salmonella): 0.7 µM
- E. coli DH5a MIC (E. coli DH5a): 1.4 µM
- IC50 (E. coli DH5a): 880 nM
- B. cereus MIC (B. cereus): 1.4 µM
- IC50 (B. cereus): 880 nM

Compound: GRSRWRDVSRNFMRR [Peptide G14.1, GRSRWRDVSRNFMRR]
- IC50 (Salmonella): 1750 nM
- Salmonella MIC (Salmonella): 2.8 µM
- E. coli DH5a MIC (E. coli DH5a): 1.37 µM
- IC50 (E. coli DH5a): 890 nM
- B. cereus MIC (B. cereus): >10 µM
- IC50 (B. cereus): 7660 nM
